The text below walks through data of article PMC6271340, “Synthesis and Anti-Tumor Activity of Novel Aminomethylated Derivatives of Isoliquiritigenin” (Molecules, 2014).

Values joined by “and” are separate entries in the source; they are usually repeats but may differ in a detail not shown here. Equal values may be shown once.

The nature of data set [1]: MTT cytotoxicity assay, THP-1 normal cells. The settings on record: human, THP-1 cells (called normal cells). The class given is cell-based. As for the experimental part: (§1) We examined the cytotoxicity of ISL nitrogenous derivatives against three cancer cell lines (PC-3, MCF-7 and HO-8910) and normal human THP-1 cells using MTT growth inhibition assays. ISL was used as a positive control. […] The IC50 values were all above 100 µM.
(§2) Cytotoxicity was evaluated against four human cell lines (MCF-7 breast cancer, PC-3 prostatic cancer, HO-8910 ovarian cancer, and THP1 normal cells). Briefly, MCF-7, PC-3 and HO-8910 cells were separately plated in 96-well culture plates (1 × 10^5 cells/well). After 24 h incubation, cells were treated with compounds 7–16 (0, 3.13, 6.25, 12.5, 25, 50 and 100 µM) for 72 h. MTT solution (5 mg/mL) was then added to each well. After 4 h incubation, the formazan precipitate was dissolved in […] dimethyl sulfoxide (DMSO), and then the absorbance was measured in an ELISA reader (Thermo Molecular Devices Co., Union City, CA, USA) at 570 nm. The cell viability ratio was calculated by the following formula: Inhibitory ratio (%) = (1 − ODtreated/ODcontrol) × 100%.

The subject of data set [2] is PC-3, human prostate cancer cells. In words: MTT cytotoxicity assay, PC-3. In kind it is cell-based. The settings on record: 72 h. The method, then: as §1, §2
(Tetrazolium assays rely on reduction of a dye to a coloured formazan, in cell work by metabolically active cells.)

The test system of data set [3] is HO-4980, human ovarian cancer cells. In words: MTT cytotoxicity assay, HO-4980 (HO-8910). In kind it is cell-based. The following applies: 72 h. The method, then:
as §1, §2

For data set [4], the system named is MCF-7, human breast cancer cells. In words: MTT cytotoxicity assay, MCF-7. The class given is cell-based. The following applies: MCF7, 72 h. The method, then: as §1, §2
A short description of data set [5]: Body-weight change as toxicity parameter in S180 tumor-bearing mice. In kind it is in vivo. The following applies: for BWC (%) body-weight change: S180 tumor-bearing BALB/c mice; for Changes in body weight as parameter for toxicity (in words): ISL derivative 15 at 80 or 40 mg/kg, ISL at 40 mg/kg, S180 tumor-bearing mice. The method, then: For comparison, ISL (40 mg/kg) was analyzed as positive control. Changes in body weight were used as parameter for toxicity.
(§3) Female BALB/c mice (6–8 weeks old, 25 ± 2 g) were obtained from the Third Affiliated Hospital of Harbin Medical University. S180 sarcoma cells were purchased from the Experimental Animal Center of Peking University Health Science Center (Heilongjiang, China). The animals were housed in polypropylene cages and maintained under controlled conditions of 12 h light/12 h dark photoperiod and 55 ± 5% relative humidity at room temperature (28 ± 2 °C). After fed in our facility for 1 week, 40 mice were induced S180 tumor cells according to Wu et al. with some modification. All mice were subcutaneously implanted with 1 × 10^6 cells/mice on the right flank. After inoculation for 24 h, all animals were randomly divided into one untreated control group, one treated positive control group and two treated experimental groups (each group contained 10 mice).
(§4) Group I (untreated control) received orally the same volume of 0.9% normal saline once per day as the treated groups. Group II (treated positive control) received orally ISL at a dosage of 40 mg/kg body weight once per day. Group III (low dose of ISL derivative 15 treatment) received ISL derivative 15 orally (dissolved in 0.2 mL normal saline) at a dosage of 40 mg/kg body weight once per day. Group IV (high-dose of ISL derivative 15 treatment) received ISL derivative 15 orally (dissolved in 0.2 mL normal saline) at a dosage of 80 mg/kg body weight once per day.

The test system of data set [6] is S180 sarcoma cells. In words: Anti-tumor activity in S180 tumor-bearing mice. In kind it is in vivo. The settings on record: S180 tumor-bearing BALB/c mice. As for the experimental part:
as §3, §4

The molecule `CN(C)Cc1c(O)ccc(C(=O)/C=C/c2ccc(O)cc2)c1O` [Compound 7, (E)-1-(3-(dimethylaminomethyl)-2,4-dihydroxyphenyl)-3-(4-hydroxyphenyl)prop-2-en-1-one] yielded a melting point greater than 176 °C. Further, the IC50 in data set [1] was greater than 100 µM. Further, the IC50 in data set [2] was greater than 100 µM. The same molecule yielded an IC50 in data set [3] greater than 100 µM. This molecule also came in with an IC50 in data set [4] greater than 100 µM.
On to `O=C(/C=C/c1ccc(O)cc1)c1ccc(O)c(CN2CCOCC2)c1O` [Compound 8, (E)-1-(2,4-dihydroxy-3-(morpholinomethyl)phenyl)-3-(4-hydroxyphenyl)prop-2-en-1-one], for which the melting point was greater than 180 °C. The IC50 in data set [1] is greater than 100 µM. Moreover, the IC50 in data set [2] stood at 48.6 µM. 96.4 µM corresponded to half-maximal inhibition in data set [3] (IC50). The IC50 in data set [4] was greater than 100 µM.
`O=C(/C=C/c1ccc(O)cc1)c1ccc(O)c(CNC2CCCCC2)c1O` [Compound 9, (E)-1-(3-(cyclohexylaminomethyl)-2,4-dihydroxyphenyl)-3-(4-hydroxyphenyl)prop-2-en-1-one] registered a melting point greater than 168 °C. The same molecule returned an IC50 in data set [1] greater than 100 µM. This molecule also came in with a 50% inhibitory concentration (IC50) in data set [2] of 28.3 µM. The molecule also registered an IC50 in data set [3] greater than 100 µM. This molecule showed an IC50 in data set [4] of 73.6 µM.
Consider `CC(C)N(Cc1c(O)ccc(C(=O)/C=C/c2ccc(O)cc2)c1O)C(C)C` [Compound 10], for which the melting point is greater than 180 °C. The same molecule registered an IC50 in data set [1] greater than 100 µM. The molecule also returned an IC50 in data set [2] greater than 100 µM. This molecule yielded an IC50 in data set [3] of 98.1 µM. Also, the IC50 in data set [4] was found to be 84.6 µM.
As to `CCN(CC)Cc1c(O)ccc(C(=O)/C=C/c2ccc(O)cc2)c1O` [Compound 11, (E)-1-(3-((diethylamino)methyl)-2,4-dihydroxyphenyl)-3-(4-hydroxyphenyl)prop-2-en-1-one], the melting point was greater than 176 °C. Moreover, in data set [1], the IC50 is greater than 100 µM. In data set [2], this molecule registered an IC50 of 66 µM. Moreover, it took 97.3 µM to reach half-maximal inhibition in data set [3] (IC50). The IC50 in data set [4] was greater than 100 µM.
With `CCC(C)NCc1c(O)ccc(C(=O)/C=C/c2ccc(O)cc2)c1O` (stereo not shown) [Compound 12, (E)-1-(3-((sec-butylamino)methyl)-2,4-dihydroxyphenyl)-3-(4-hydroxyphenyl)prop-2-en-1-one], the melting point was greater than 175 °C. Further, the IC50 in data set [1] is greater than 100 µM. For the same molecule, the IC50 in data set [2] worked out at 57.1 µM. In data set [3], this molecule returned an IC50 greater than 100 µM. In data set [4], this molecule gave an IC50 of 84.8 µM.
On to `CC(C)(C)NCc1c(O)ccc(C(=O)/C=C/c2ccc(O)cc2)c1O` [Compound 13, (E)-1-(3-((tert-butylamino)methyl)-2,4-dihydroxyphenyl)-3-(4-hydroxyphenyl)prop-2-en-1-one], for which the melting point is greater than 170 °C. In data set [1], the IC50 is greater than 100 µM. The IC50 in data set [2] was greater than 100 µM. The molecule also showed an IC50 in data set [3] greater than 100 µM. In addition, the IC50 in data set [4] was greater than 100 µM.
For the molecule `O=C(C=Cc1ccc(O)cc1)c1ccc(O)c(CNCCO)c1O` [Compound 14, 1-(2,4-dihydroxy-3-((2-hydroxyethylamino)methyl)phenyl)-3-(4-hydroxyphenyl)propen-1-one], the melting point is greater than 180 °C. Also, in data set [1], the IC50 is greater than 100 µM. Besides, half-maximal inhibition in data set [2] (IC50) required 87.7 µM. Besides, the IC50 in data set [3] came out at 89 µM. The molecule also had an IC50 in data set [4] of 66 µM.
Regarding `O=C(/C=C/c1ccc(O)cc1)c1ccc(O)c(CN(CCO)CCO)c1O` [Compound 15, (E)-1-(3-((bis(2-hydroxyethyl)amino)methyl)-2,4-dihydroxyphenyl)-3-(4-hydroxyphenyl)prop-2-en-1-one], the IC50 in data set [1] is greater than 100 µM; in data set [2], 35.1 µM; in data set [3] it was 37.9 µM; in data set [4] it was 42.9 µM. The “BWC (%) body-weight change” value was “+12.8%” in data set [5] (40 mg/kg orally once per day) and “+7.8%” in data set [5] (80 mg/kg orally once per day). The “Changes in body weight as parameter for toxicity (in words)” value in data set [5] is on record as “Loss of body weight was not found”. Besides, the results for the “TIR (%) tumor inhibitory rate” value in data set [6] (40 mg/kg orally once per day) and in data set [6] (80 mg/kg orally once per day) were 39.72% and 71.68%, respectively. Besides, the “TW (g) x ± SD (tumor weight)” value in data set [6] (40 mg/kg orally once per day) is on record as 0.74 ± 0.618 g; in data set [6] (80 mg/kg orally once per day), 0.35 ± 0.442 g.
Take `O=C(/C=C/c1ccc(O)cc1)c1ccc(O)c(CN2CCCC2)c1O` [Compound 16]: the melting point is 116.5 to 117.1 °C and 116.5 to 117.4 °C. The IC50 in data set [1] was greater than 100 µM. Also, the IC50 in data set [2] was greater than 100 µM. Also, inhibition in data set [3] was half-maximal at 74.9 µM (IC50). Further, in data set [4], the IC50 is 81.8 µM.
Take `O=C(/C=C/c1ccc(O)cc1)c1ccc(O)cc1O` [ISL, isoliquiritigenin]: the IC50 was greater than 100 µM in data set [1], 36.9 µM in data set [2], 58.4 µM in data set [3] and 44.1 µM in data set [4]. In addition, the “BWC (%) body-weight change” value in data set [5] (40 mg/kg orally once per day) is recorded as −3.0%. Besides, the “Changes in body weight as parameter for toxicity (in words)” value in data set [5] is reported as “slight weight loss”. Further, the “TIR (%) tumor inhibitory rate” value in data set [6] (40 mg/kg orally once per day) is 32.44%. For the same molecule, in data set [6] (40 mg/kg orally once per day), the “TW (g) x ± SD (tumor weight)” value was determined as 0.85 ± 0.369 g.

Usually IC50 stands for the concentration that inhibits the measured activity by half. What is called melting point is the temperature of the solid-liquid transition.
